Consider one cell line from the supplement of paper PMC10307832.

Holding throughout (test): relative viability (nuclei count vs DMSO), 5 days (fraction); higher = more cells survive
Compound in the test “IPA-3 + Olaparib”: C1=CC=C2C(=C1)C=CC(=C2SSC3=C(C=CC4=CC=CC=C43)O)O [IPA-3] + O=C(c1cc(Cc2n[nH]c(=O)c3ccccc23)ccc1F)N1CCN(C(=O)C2CC2)CC1 [Olaparib] (partner 8 µM)
In outline: (§1)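 One day after seeding in 1536-well plates, lung cancer cell lines were dosed by pin tool. Dosing was either single-drug or a fixed anchor-drug dose plus five library-drug doses (not always all listed) in √10 steps. After 5 days, nuclei were stained in one fix-and-stain step and counted on 4× images, and relative viability is the nuclei count of treated wells over that of vehicle wells, given as the median of duplicate plates.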

Compound in the test “IPA-3 + Crizotinib”: C1=CC=C2C(=C1)C=CC(=C2SSC3=C(C=CC4=CC=CC=C43)O)O [IPA-3] + C[C@@H](Oc1cc(-c2cnn(C3CCNCC3)c2)cnc1N)c1c(Cl)ccc(F)c1Cl [Crizotinib] (partner 1 µM)
The essentials:
as §1

Compound in the test “Doramapimod + OSI-027”: Cc1ccc(-n2nc(C(C)(C)C)cc2NC(=O)Nc2ccc(OCCN3CCOCC3)c3ccccc23)cc1 [Doramapimod] + COc1cccc2cc(-c3nc([C@H]4CC[C@H](C(=O)O)CC4)n4ncnc(N)c34)[nH]c12 [OSI-027] (partner 0.5 µM)
The essentials:
as §1

Compound in the test “IPA-3 + Palbociclib”: C1=CC=C2C(=C1)C=CC(=C2SSC3=C(C=CC4=CC=CC=C43)O)O [IPA-3] + CC(=O)c1c(C)c2cnc(Nc3ccc(N4CCNCC4)cn3)nc2n(C2CCCC2)c1=O [Palbociclib] (partner 0.5 µM)
The essentials:
as §1

With UMC-11, the relative viability worked out at 1.06 with IPA-3 + Olaparib (first compound 0.2 µM); 0.459 with IPA-3 + Olaparib (first compound 0.6325 µM); 0.338 with IPA-3 + Olaparib (first compound 2 µM); 0.361 with IPA-3 + Olaparib (first compound 6.325 µM); 0.384 with IPA-3 + Olaparib (first compound 20 µM); 0.605 with IPA-3 + Crizotinib (first compound 0.2 µM). Also, the relative viability in the test with IPA-3 + Crizotinib (first compound 0.6325 µM) turned out to be 0.524; in the test with IPA-3 + Crizotinib (first compound 2 µM), 0.798; with IPA-3 + Crizotinib (first compound 6.325 µM) it was 0.579; with IPA-3 + Crizotinib (first compound 20 µM), 0.673; in the test with Doramapimod + OSI-027 (first compound 0.02 µM) it was 0.49; with Doramapimod + OSI-027 (first compound 0.06325 µM), 0.385. Also, the relative viability with Doramapimod + OSI-027 (first compound 0.2 µM) was found to be 0.472; in the test with Doramapimod + OSI-027 (first compound 0.6325 µM) it was 0.438; in the test with Doramapimod + OSI-027 (first compound 2 µM) it was 0.444; in the test with IPA-3 + Palbociclib (first compound 0.2 µM) it was 0.323; with IPA-3 + Palbociclib (first compound 0.6325 µM), 0.333; in the test with IPA-3 + Palbociclib (first compound 2 µM) it was 0.312. Besides, the relative viability with IPA-3 + Palbociclib (first compound 6.325 µM) came to 0.328; with IPA-3 + Palbociclib (first compound 20 µM), 0.337.
